Reference: PubChem BioAssay AID1399 (The Scripps Research Institute Molecular Screening Center, 2008)

Molecular target: Signal transducer and activator of transcription 3 (Homo sapiens) (UniProt P40763)
Assay: blockers of STAT3 signaling, concentration series – cell-based, dose response (AID 1399)
Settings: human cell STAT3 reporter inhibition

Row | Structure (SMILES) | IC50 [µM]
1 | COc1ccc(NS(=O)(=O)c2ccc(NC(=O)c3ccc(N(C)S(C)(=O)=O)cc3)cc2)cc1 | 3.99
2 | O=C(Oc1ccccc1N1C(=O)C2CCCCC2C1=O)c1ccccc1 (stereo not drawn) | 7.93
3 | CC(=O)c1ccc(N=Nc2ccc(C)cc2)cc1 | 4.77
4 | Cc1nc2sccn2c1-c1csc(NCc2ccccc2)n1 | 4.37
5 | CN(C)S(=O)(=O)Oc1cccc(C(=O)Nc2ccc(Cl)cc2)c1 | 5.23
6 | CN(C)S(=O)(=O)c1ccc(C(=O)Nc2nc(-c3cccs3)cs2)cc1 | 8.64
7 | CCN(CC)c1ccc(NC(=O)CN2C(=O)CSc3ncccc32)c(C)c1 | 3.82
8 | CCC(C)(C)c1ccc(OCCCC[n+]2cccc(C)c2)c(C(C)(C)CC)c1 | 4.09
9 | COC(=O)c1cccc(NC(=O)CSc2nc3cccnc3n2C)c1 | 5.35
10 | CCCNC(=O)c1ccc(-c2nc3ccccc3s2)s1 | 5.06
11 | CNC(=O)Oc1cccc(-c2cn3cc(Cl)ccc3n2)c1 | 1.78
12 | COc1ccc(Br)cc1/C(C)=N/NC1=NCCN1 | 5.44
13 | c1ccc(C(Cc2nc(-c3ccncc3)no2)c2ccccc2)cc1 | 5.05
14 | Cc1ccsc1/C=C1\CCc2ccccc2C1=O | 5.04
15 | COC(=O)Oc1ccc(/C=N/NC(=O)CSCc2ccccc2Br)cc1OC | 2.07
16 | O=C(Nc1ccncc1)c1ccc2c(c1)C(=O)N(C1CCCCC1)C2=O | 2.42
17 | O=C(Nc1ccc(Oc2ccccc2)cc1)c1cnc2n(c1=O)CCS2 | 1.61
18 | O=C(Nc1ccc(Cc2ccncc2)cc1)c1ccc(S(=O)(=O)N2CCOCC2)cc1 | 4.31
19 | O=S(=O)(c1ccc2c(c1)OCCO2)N1CCC(c2nc3ccccc3s2)CC1 | 6.73

Row | Structure (SMILES) | IC50 [µM]
20 | O=c1c2c(nc3n1CCCCC3)sc1c(O)cccc12 | 7.42
21 | O=C(Nc1cccc(S(=O)(=O)Nc2ccccc2Cl)c1)c1ccc(Cl)nc1 | 5.13
22 | O=C1C2C3c4ccccc4C(c4ccccc43)[C@@H]2c2nc3ccccc3n21 (stereo partly drawn) | 4.51
23 | Cc1cc(OCC(=O)Nc2ccncc2)ccc1Br | 6.7
24 | Cc1ccc(-c2cn3cc([N+](=O)[O-])ccc3n2)cc1 | 4.09
25 | CCC(C)NC(=S)Nc1ccc(C(=O)OC)cc1 (stereo not drawn) | 4.35
26 | Cc1csc(NC(=O)c2cc3c(s2)CCCC3)n1 | 3.82
27 | Cc1cccc(C)c1NC(=O)N1CCN(c2nc3ccccc3s2)CC1 | 4.48
28 | CN1/C(=C\C(=O)C[n+]2ccc3ccccc3c2)C(C)(C)c2ccccc21 | 1.74
29 | CC(=O)N1CCc2cc(S(=O)(=O)NC3CCCc4ccccc43)ccc21 (stereo not drawn) | 5.12
30 | C[C@@H]1O[C@@H](O[C@H]2C[C@@H](O)[C@]3(CO)[C@H]4[C@H](O)C[C@]5(C)[C@@H](C6=CC(=O)OC6)CC[C@]5(O)[C@@H]4CC[C@]3(O)C2)[C@H](O)[C@H](O)[C@H]1O | 1.15
31 | CCOC(=O)Cc1csc(SCC(=O)c2c(N)n(CC(C)C)c(=O)n(C)c2=O)n1 | 3.7
32 | O=C(COC(=O)c1n[nH]c2ccccc12)Nc1ccc(S(=O)(=O)N2CCCC2)cc1 | 4.5
33 | Cc1cc(NC(=O)c2cc(-c3cccs3)on2)nn1Cc1ccc(Cl)cc1 | 5.48
34 | O=C1CCCN1c1ccc(S(=O)(=O)N2CCC(c3ccccc3)CC2)cc1 | 4.5
35 | C[C@H]1CCC[C@@H](O)CCC/C=C/c2cc(O)cc(O)c2C(=O)O1 | 5.25
36 | COc1ccc(/C=N/NC(=S)Nc2cccc(C(=O)O)c2)cc1 | 4.56
37 | COc1ccc(C)cc1-n1nnnc1SCn1nnc2ccccc2c1=O | 7.58
38 | O=C(Nc1ccc(N2CCOCC2)nc1)c1ccc(C(F)(F)F)cc1 | 3.4
